Source: patent US20130345061A1 (priority 2011, published 2013)
Values joined by “and” are separate entries in the source; they are usually repeats but may differ in a detail not shown here. Equal values may be shown once. Read-outs that look alike come from different tables or passages of the source.

Test system: Pseudomonas syringae pv. porri
Assay type: in vivo
Settings: for % infection / Total number of positive leaves per object: repeats A and B
[1] = wetting agent 0, leek, natural washing off 15 mm, reading after 8 weeks
[2] = wetting agent (emulsion according to the invention) 0.25%, CuSO4 6 g/L
[3] = wetting agent (emulsion according to the invention) 0.50%, CuSO4 6 g/L
[4] = wetting agent (emulsion according to the invention) 1.00%, CuSO4 6 g/L

O=S(=O)([O-])[O-].[Cu+2] [CuSO4, copper sulfate]
significant difference to reference product Phyton 27 (statistical test) (copper sulfate with the wetting agent at 0.5% or 1%): equivalent to the reference product
% infection [1]: 52% and 49%
Total number of positive leaves per object [1]: 29
% infection [2]: 35% and 37%
Total number of positive leaves per object [2]: 18 and 17
% infection [3]: 31%
Total number of positive leaves per object [3]: 17 and 16
% infection [4]: 25% and 27%
Total number of positive leaves per object [4]: 13 and 15
leaves attacked / level of infection per mode (without wetting agent, value for the whole mode): more than 50%
